Source: patent US20110256241A1, “METHODS AND COMPOSITIONS FOR THE TREATMENT OF CANCER” (TRASLATIONAL CANCER DRUGS PHARMA, S.L., priority 2008, published 2011)

Key:
Format in all cases: cell-based, human
[1] = system: primary cultures of tumours of patients with NSCLC; experiment: Primary cultures of NSCLC tumours, crystal violet quantification; conditions: primary NSCLC tumour cultures, 0-20 μM, 10 days
Protocol: Resected tissues from NSCLC patients were dissociated (Cell dissociation sieve-tissued grinder Kit CD1, SIGMA), and the obtained cells were seeded in 24 well plates (BD, Falcon, Bioscience, San Jose, Calif., USA). […] The final persistent population in each well was quantified by the method of Cristal Violet as previously described (Rodríguez-González, A. et al., Oncogene, 22:8803-8812). […]

H1299 cells = experiment: Cell proliferation assay (MTT)
Protocol: (§1) All cell lines used in this study were maintained under standard conditions of temperature (37° C.), humidity (95%), and carbon dioxide (5%). Human primary bronchial epithelial cells, NHBE (BEC) (Cambrex, CC-2541) were grown in BEGM (Bronchial Epithelial cell growth media) BulletKit (Cambrex, CC-3170). Human primary mammary epithelial cells, HMEC (Clonetics, CC-2551) were grown in MEBM medium supplemented with a bullet kit (Clonetics, CC-3150). Epithelial non-small lung cancer cells H460 and H1299, and small cell lung cancer cell lines H510 and H82 were maintained in RPMI supplemented with 10% Fetal Bovine Serum (FBS) (Life Technologies, Grand Island, N.Y.).
(§2) Cells were seeded on 96-well plates (BD, Falcon, Bioscience, San Jose, Calif., USA) at a density of 6000 cells/well, and incubated for 24 h under standard conditions. […] Absorbance is read at 595 nm in a VersaMax Microplate Reader (Molecular Devices, Sunnyvale, Calif., USA). For sensitization with acid ceramidase inhibitor, cells were pre-treated 4 hours with the correspondent IC50 for NOE before treatment with ChoK inhibitors. NOE (N-Oleoyl ethanolamine) was obtained from Calbiochem (La Jolla, Calif., USA).

H510 cells = experiment: Cell proliferation assay (MTT)
Protocol: as §1, §2

H82 cells = experiment: Cell proliferation assay (MTT)
Protocol: as §1, §2

H460 cells = experiment: Affymetrix gene expression analysis of 5-FU metabolization pathway; parameters: key to RRM2 (Ribonucleotide Reductase) gene expression / TYMS (Thymidylate synthetase) gene expression / DUT (Deoxyuridine triphosphatase) gene expression: Signal Log Ratio, base 2 (1.0 = 2-fold increase, 0 = no change)
Protocol: The RNAs from the biopsies selected were isolated for microarrays and QT-PCR, using RNeasy Mini Kit (QIAGEN, Hilden, Germany) following the instructions of the manufactures. Samples were prepared and the array hybridized according to the Affymetrix GeneChip Expression Analysis Technical Manual. Hybridization to Affymetrix U133plus2 GeneChips (54,614 probe sets, representing 47,000 transcripts), staining, washing and scanning procedures were carried out at the Genomic Facility in the National Center of Biotechnology (Madrid, Spain) as described in www.affymetrix.com (Affymetrix, Santa Clara, Calif.). The Signal Log Ratio estimates the magnitude and direction of change of a transcript. The log scale used is base 2, thus a Signal Log Ratio of 1.0 indicates an increase of the transcript level by 2 fold and −1.0 indicates a decrease by 2 fold. A Signal Log Ratio of zero would indicate no change.
With the aim of further investigating the mechanism of ChoKIs sensitization to the antitumoral effect of 5-FU, a gene expression analysis of the 5-FU-metabolisation pathway was performed in H460 cells treated at different times with MN58b and RSM-932A using affymetrix technology.

DLD-1 colon cancer cells = experiment: QT-PCR validation of 5-FU metabolization pathway genes; parameters: key: DR (Down-regulation); UR (Up-regulation)
Protocol: (§3) 1 μg of RNA was used to generate cDNA using High-Capacity cDNA Archive Kit (Applied Biosystems), and quantitative real-time PCR was carried out in triplicate using the ABI PRISM 7700 Sequence Detector (Applied Biosystems). GAPDH and 18S ribosomal mRNA were amplified as internal controls. Probes used for amplification were from Applied Biosystems as Taqman Gene Expression Assays (ASAH1: HS00602774—M1 Taqman Probe, ASAH2: HS00184096_M1 Taqman Probe and ASAH3: HS00370322_M1 Taqman Probe, DUT: HS00798995_S1 Taqman Probe, TYMS: HS00426591_M1 Taqman Probe, UPP1: HS00427695—M1 Taqman Probe, RRM2: HS00357247_G1 Taqman Probe). The 2-^ΔΔCt method was used (Livak K J., Methods. 2001; 25:402-8) to calculate the relative expression of each gene.

HT29 colon cancer cells = experiment: as above; parameters: key: DR (Down-regulation); UR (Up-regulation)
Protocol: as §3

SW62 colon cancer cells = experiment: as above; parameters: key: DR (Down-regulation); UR (Up-regulation)
Protocol: as §3

`CN(C)c1cc[n+](Cc2ccc(CCCCc3ccc(C[n+]4ccc(N(C)C)cc4)cc3)cc2)cc1` [MN58b, 1,4-(4-4′-Bis-((4-(dimethylamine)pyridinium-1-yl)methyl)diphenyl)butane dibromide] was tested, and the “RESISTANT (number of samples)” value [1] was 28, the “SENSITIVES (number of samples)” value [1] was 35 and the “figure in parentheses after IC50 48 h (not defined; fold vs primary cells)” value (H1299 cells) was 4. The “figure in parentheses after IC50 72 h (not defined; fold vs primary cells)” value (H1299 cells) was 8, the “figure in parentheses after IC50 144 h (not defined; fold vs primary cells)” value (H1299 cells) was 4 and the “figure in parentheses after IC50 48 h (not defined; fold vs primary cells)” value (H510 cells) was 41. For the same compound, the “figure in parentheses after IC50 72 h (not defined; fold vs primary cells)” value (H510 cells) was 53, the “figure in parentheses after IC50 144 h (not defined; fold vs primary cells)” value (H510 cells) was 27 and the “figure in parentheses after IC50 48 h (not defined; fold vs primary cells)” value (H82 cells) was 24. The “figure in parentheses after IC50 72 h (not defined; fold vs primary cells)” value (H82 cells) was 27, the “figure in parentheses after IC50 144 h (not defined; fold vs primary cells)” value (H82 cells) was 12 and the “DUT (Deoxyuridine triphosphatase) gene expression” value (H460 cells; H460, 9 h) was −1.17. The “RRM2 (Ribonucleotide Reductase) gene expression” value (H460 cells; H460, 9 h) was −1.48, the “TYMS (Thymidylate synthetase) gene expression” value (H460 cells; H460, 9 h) was −1.30 and the “UPP1 (Uridine phosphorylase 1) gene expression” value (H460 cells; H460, 9 h) was “+1.54”. For the same compound, the “DUT (Deoxyuridine triphosphatase) gene expression” value (H460 cells; H460, 24 h) was −2.03, the “RRM2 (Ribonucleotide Reductase) gene expression” value (H460 cells; H460, 24 h) was −2.50 and the “TYMS (Thymidylate synthetase) gene expression” value (H460 cells; H460, 24 h) was −2.39. For the same compound, the “UPP1 (Uridine phosphorylase 1) gene expression” value (H460 cells; H460, 24 h) was “+1.76”, the TYM expression (DLD-1 colon cancer cells) was “DR” and the UPP expression (DLD-1 colon cancer cells) was “UR”. The DUT expression (HT29 colon cancer cells) was “DR”, the RRM expression (HT29 colon cancer cells) was “DR” and the TYM expression (HT29 colon cancer cells) was “DR”. The RRM expression (SW62 colon cancer cells) was “DR”, the TYM expression (SW62 colon cancer cells) was “DR” and the UPP expression (SW62 colon cancer cells) was “UR”.
